The values below come from patent US10543155B2, “Compositions containing zinc salts and isothiocyanates for reduction of oral volatile sulfur compounds (VSCs)” (priority 2011, dated 2020).

The nature of assay [1]: in vitro reduction of headspace H2S by isothiocyanates (GC-SCD). Particulars: for Peak Area (headspace H2S): 200 ppm H2S in 5 ml PBS pH 7.4, 5 min 37° C. As to the method: A stock solution of H2S was prepared by a serial dilution in PBS buffer (pH 7.4), with a final concentration of 200 ppm. Allyl isothiocyanate, benzyl isothiocyanate, ethyl isothiocyanate and 3-methylthiopropyl isothiocyanate (all from Sigma-Aldrich) were dissolved in pure ethanol to form 1.0% of working solution of each. A total of 5 ml PBS buffer containing 200 ppm of H2S in a headspace vial (22 ml volume) was mixed with 0.125, 0.25, 0.5 and 1 mg of each isothiocyanate compound for 5 min at 37° C., respectively. The headspace sample was injected into the GC-SCD by an automatic sampler for VSC analysis. The reduction of headspace concentration of H2S was calculated by the formula below: […]
In view of the results pertaining to allyl isothiocyanate in Table 1, Applicants further evaluated allyl isothiocyanate in vitro for its VSC elimination effect of hydrogen sulfide (H2S). A […] headspace vial containing 5 ml of PBS solution and 200 ppm of H2S was treated with various concentrations of allyl isothiocyanate, respectively (0.25-1.0 mg). In a standard experimental protocol, a stock of hydrogen sulfide solutions were prepared by dissolving c.a. 0.10 g of sodium sulfide in a total of 10 ml phosphate buffer solution (PBS) (pH 7.4). It was further diluted in PBS to produce a working solution contained 200 ppm of H2S in buffer.

Assay [2] can be described thus: zinc lactate and AITC against VSC mixture, headspace GC-SCD: CH3SH. Particulars: 1 mg in 5 ml VSC mixture (200 ppm H2S, 40 ppm CH3SH), 37° C. 5 min, FIG. 4. As to the method: (§1) The final concentrations of H2S and CH3SH in solution were a 200 and 40 ppm, respectively. The final amount of VSC was 1.2 mg in the test vial. Although the headspace concentrations of H2S and CH3SH were well above the level found in a typical foul mouth air (200-500 parts per billion), the total amount of VSC was close to the amount presented in oral cavity. Subsequently, 5 ml of the VSC mixture was kept in a 22 ml tight screw cap headspace vial at 37° C. for 5 min. The headspace sample was injected into a GC column with an SCD detector. […] The large peak area of CH3SH reflects its volatility in the headspace compared with H2S.
(§2) Separately, 1 mg of zinc lactate, or 1 mg of allyl isothiocyanate (AITC), or combination of 1 mg Zinc lactate and 1 mg of AITC were added to each of headspace vial containing 5 ml VSC mixture and equilibrated at 37° C. for 5 min. Each headspace sample was injected into a GC column by a Combi-Pal auto-sampler. The amount of sulfur was analyzed by an Agilent SCD-355 chemoluminescent sulfide detector.

Assay [3] can be described thus: zinc lactate and AITC against VSC mixture, headspace GC-SCD: H2S. Particulars: 1 mg in 5 ml VSC mixture (200 ppm H2S, 40 ppm CH3SH), 37° C. 5 min, FIG. 4. On the procedure: as §1, §2
The nature of assay [4]: in vitro headspace GC-SCD test of zinc salts against H2S. Particulars: 5 ml PBS containing 1 mg H2S, 37° C. 5 min; for reduces the oral malodor produced by hydrogen sulfide (H2S): FIG. 2. As to the method:
In another experiment, 5 ml of PBS solution containing 1 mg of H2S was prepared via a serial dilution in a 22 ml headspace vial for FIG. 2 below. Different amounts of zinc salts were added and mixed at 37° C. for 5 min. The headspace concentration of H2S was analyzed by GC-SCD.

A short description of assay [5]: in vitro headspace GC-SCD test of zinc salts against methyl mercaptan. Particulars: 200 ppm CH3SH in 5 ml PBS pH 7.4, 5 minutes at 37° C., FIG. 1.
Description: For evaluation of the efficacy of various zinc salts against specific VSCs, the Applicants established an in vitro method using a headspace gas-chromatograph equipped with a sulfur detector. Thus, a total of 200 ppm of CH3SH in 5 ml of phosphate buffer solution (PBS) was prepared. The pH was maintained at 7.4. […] The headspace sample was injected into a gas chromatograph sulfur chemiluminescence detector (GC-SCD).
Setting [6] is: 50 ppm isothiocyanate, 200 ppm H2S.
Setting [7] is: 100 ppm isothiocyanate, 200 ppm H2S.
The mark [8] stands for this setting: 200 ppm isothiocyanate, 200 ppm H2S.

With `CSCCCN=C=S` [3-methylthiopropyl isothiocyanate], the “% Reduction of headspace concentration (H2S)” value (“% Reduction” below) in assay [1] (setting [6]) is recorded as 51%; in assay [1] (setting [7]) it was 75%; in assay [1] (setting [8]), 94.5%. Moreover, the “Peak Area (headspace H2S)” value was 416687277 in assay [1] (50 ppm isothiocyanate), 211177117 in assay [1] (100 ppm isothiocyanate) and 46897168 in assay [1] (200 ppm isothiocyanate).
In the case of `C=CCN=C=S` [Allyl isothiocyanate, allyl isothiocyanate], the “Reduction of H2S” value is on record as 49.0% in assay [1] (0.25 mg allyl isothiocyanate, 5 ml PBS, 200 ppm H2S); 98.4% in assay [1] (0.5 mg allyl isothiocyanate, 5 ml PBS, 200 ppm H2S); 99.5% in assay [1] (1 mg allyl isothiocyanate, 5 ml PBS, 200 ppm H2S); “greater than 90%” in assay [1] (at 100 ppm or greater). In addition, the “% Reduction” value in assay [1] (setting [6]) came to 49%; in assay [1] (setting [7]), 98.4%; in assay [1] (setting [8]), 99.5%. For the same molecule, the “Peak Area (headspace H2S)” value was found to be 431713256 in assay [1] (50 ppm isothiocyanate), 13651581 in assay [1] (100 ppm isothiocyanate) and 4266119 in assay [1] (200 ppm isothiocyanate). The CH3SH eliminated in assay [2] was found to be 78%. Moreover, the H2S eliminated in assay [3] was 98%.
With `S=C=NCc1ccccc1` [Benzyl isothiocyanate, benzyl isothiocyanate], the “% Reduction” value is given as 42% in assay [1] (25 ppm isothiocyanate, 200 ppm H2S); 53% in assay [1] (setting [6]); “greater than 50%” in assay [1] (50 ppm isothiocyanate, 200 ppm H2S, listed as benzyl isothiocyanate). Further, the “Peak Area (headspace H2S)” value in assay [1] (25 ppm isothiocyanate) stood at 491908604; in assay [1] (50 ppm isothiocyanate), 398519292.
Turning to `CCN=C=S` [Ethylisothiocyanate, ethyl isothiocyanate], the “% Reduction” value is −13% in assay [1] (setting [6]); 14.9% in assay [1] (setting [7]); 68% in assay [1] (setting [8]); 68% in assay [1] (200 ppm isothiocyanate, 200 ppm H2S, listed as ethylisothiocyanate). The “Peak Area (headspace H2S)” value was determined as 963110533 in assay [1] (50 ppm isothiocyanate), 726258436 in assay [1] (100 ppm isothiocyanate) and 271822727 in assay [1] (200 ppm isothiocyanate).
As for `CC(O)C(=O)[O-].CC(O)C(=O)[O-].[Zn+2]` (stereo not drawn) [zinc lactate], the “reduces the oral malodor produced by hydrogen sulfide (H2S)” value (shortened to “reduces the oral malodor produced”) in assay [4] is listed as “reduces”. In addition, the “amount of zinc salt above which H2S is reduced” value in assay [4] (in vitro) is “greater than 0.25 mg”. Also, the “reducing the headspace concentration of methyl mercaptan (CH3SH)” value in assay [5] is given as “ineffective”. For the same molecule, the CH3SH eliminated in assay [2] was determined as 0%. Also, the H2S eliminated in assay [3] was 98%.
In the case of zinc ascorbate, the “reduces the oral malodor produced” value in assay [4] is reported as “reduces”.
Turning to zinc gluconate, the “reduces the oral malodor produced” value in assay [4] is recorded as “reduces”. The “reducing the headspace concentration of methyl mercaptan (CH3SH)” value in assay [5] is on record as “ineffective”.
On to zinc hydrogen aspartate, for which the “reduces the oral malodor produced” value in assay [4] is “reduces”.
